Patent publication US11351347B2, “Vacuum-assisted drug delivery device and method” (VacuMed, LLC., priority 2014, dated 2022)

Test: Vacuum-assisted trans-epithelial delivery of riboflavin into rabbit corneas, compared with standard delivery after epithelium removal
Format: in vivo
Settings: trans-epithelial vacuum delivery through intact epithelium, varying application time periods; compared with standard method in which the epithelium is surgically removed
Description: The device and method herein were tested to verify the effectiveness of the vacuum delivery system and to quantify concentrations of the standard formulation of riboflavin that is used in the process of cross-linking collagen corneal tissue in rabbit corneas. The tests employed the present invention to facilitate trans-epithelial delivery of riboflavin at varying application time periods, and compare the concentrations achieved with the concentration of riboflavin achieved through the standard method of riboflavin delivery (i.e., in which the epithelium is surgically removed). […] In other embodiments, high levels of vacuum, higher riboflavin concentrations, and the use of penetration enhancers may be used to increase the amount of riboflavin diffusion into the cornea per unit time. These animal studies clearly provide a proof of principle for the efficacious delivery of riboflavin into the cornea, through an intact epithelium, using the device and method of this invention. These studies also provide critical concentration/treatment time data for utilizing this invention.

SMILES: Cc1cc2nc3c(=O)[nH]c(=O)nc-3n(C[C@H](O)[C@H](O)[C@H](O)CO)c2cc1C [riboflavin]
- riboflavin delivery to the cornea (concentration achieved): equivalent to the effect of removing the corneal epithelium
